Assay results taken from paper PMC7311950, “Potent Tetrahydroquinolone Eliminates Apicomplexan Parasites” (Frontiers in Cellular and Infection Microbiology, 2020).
“Also recorded” adds a separate entry of the source.

Tested on: T. gondii Me49 strain
Assay: Established chronic Me49 infection of Balb/C mice, brain cysts
Assay type: in vivo, Toxoplasma gondii
Settings: treatment begun day 30 after infection, IP daily for 14 days
Method: In separate experiments, Balb/C mice were infected IP with 20 × 10^3 T. gondii Me49 strain tachyzoites. In these separate studies of mice with established chronic infection, after 30 days, IP treatment with JAG21 was begun each day for 14 days. JAG21 was dissolved in DMSO and administered IP in a total volume of 0.05 mL. In experiments when tafenoquine was administered alone or with JAG21 in some groups 3 mg/kg tafenoquine was administered once on day−1 from when JAG21 treatment was initiated. Cysts in brain were quantitated on day […], 16 days after discontinuing JAG21. Immunoperoxidase staining was performed. Parasite burden was quantitated in two ways. The first was using a positive pixel count algorithm of Aperio ImageScope software. Positive pixels were normalized to tissue area (mm^2). Briefly, automated quantitation was done by counting positive pixels per square area. The entire brain in one section was scanned for each mouse. The Cyst burden was quantitated as units of positive pixels per mm^2. The average ± S.E.M. numbers of mm^2 per slide quantitated was 30.2±1.6 square mm per mouse for this quantification. Each highpower field of view shown in Figure 5C is ~0.02 mm^2 per field of view. Cysts on each slide for each condition in two biological replicate experiments were also quantitated by 2 separate observers independently and results compared with automated counting, separately.

Cc1[nH]c2c(c(=O)c1-c1ccc(Oc3ccc(OC(F)(F)F)cc3)cc1)CCCC2 [JAG21, 2-Methyl-3-(4-(4-(Trifluoromethoxy)Phenoxy)Phenyl)-5,6,7,8-Tetrahydroquinolin-4-One]
Me49 brain cysts: marked, statistically significant reduction; also recorded: markedly reduce
